Source: US20200140556A1, “Methods and Compositions for Dectin-2 Stimulation and Cancer Immunotherapy” (The Board of Trustees of the Leland Stanford Junior …, priority 2017, published 2020)

Columns and labels:
[1] = test system: Dectin-2 expression by human monocytes; experiment: Dectin-2 expression by human monocytes cultured with or without GM-CSF (flow cytometry); type: cell-based
Method: (§1) FIG. 4A-4D. GM-CSF induces Dectin-2 expression and sensitizes tumors to Dectin-2 stimuli. (FIG. 4A-4C) Murine (FIG. 4A, FIG. 4B) and human (FIG. 4C) monocytes were cultured for 24 hr in media supplemented or not with GM-CSF (50 ng/mL) prior to flow cytometric analysis of Dectin-2 expression (FIG. 4A, FIG. 4C) or stimulation with furfurman and analysis of TNFα production (FIG. 4B). […] (FIG. 4D) Mice bearing s.c. CT26 tumors were treated with mannan (i.v.) and/or GM-CSF (i.t.) starting on day 6 post-tumor implantation.
(§2) FIG. 27A-27G. […] (FIG. 27A, FIG. 27B) Dectin-2 expression by mouse (FIG. 27A) or human (FIG. 27B) monocytes cultured for 18 hr with media supplemented or not with GM-CSF. (C-E) TNFα production by mouse monocytes pretreated with 3T3 fibroblast-conditioned medium+/−GM-CSF (FIG. 27C) or LMP tumor-conditioned medium+/−GM-CSF-neutralizing antibodies (FIG. 27D) or by human monocytes pretreated as indicated (FIG. 27E). (FIG. 27F) LMP-bearing mice treated with mannan (12.5 mg/kg i.v. q2d×2 wk) and the indicated anibodies (10 mg/kg i.p. q2d). (FIG. 27G) Heatmap depicting correlations between expression of Dectin-2 and the indicated genes in human cancer tissues. Gene expression data were obtained from TCGA and analyzed to obtain Spearman's correlation coefficients. **, p<0.01; ****, p<0.0001 by Student's t-test (B) or two-way ANOVA with post hoc Tukey's (F) test. […]

[2] = test system: Dectin-2 expression by murine monocytes; experiment: Dectin-2 expression by murine monocytes cultured with or without GM-CSF (flow cytometry); type: cell-based
Method: as §1, §2

[3] = test system: s.c. CT26 tumors; experiment: s.c. CT26 tumors treated with mannan (i.v.) and/or GM-CSF (i.t.); type: in vivo, mice; conditions: from day 6
Method: as §1
(FIG. 4A-4C) Murine (FIG. 4A, FIG. 4B) and human (FIG. 4C) monocytes were cultured for 24 hr in media supplemented or not with GM-CSF (50 ng/mL) prior to flow cytometric analysis of Dectin-2 expression (FIG. 4A, FIG. 4C) or stimulation with furfurman and analysis of TNFα production. […] (FIG. 4D) Mice bearing s.c. CT26 tumors were treated with mannan (i.v.) and/or GM-CSF (i.t.) starting on day 6 post-tumor implantation.

[4] = test system: monocytes; experiment: TNFα production by monocytes pretreated with conditioned medium +/- GM-CSF; type: cell-based, mouse
Method: FIG. 27A-27G. […] (FIG. 27A, FIG. 27B) Dectin-2 expression by mouse (FIG. 27A) or human (FIG. 27B) monocytes cultured for 18 hr with media supplemented or not with GM-CSF. (C-E) TNFα production by mouse monocytes pretreated with 3T3 fibroblast-conditioned medium+/−GM-CSF (FIG. 27C) or LMP tumor-conditioned medium+/−GM-CSF-neutralizing antibodies (FIG. 27D) or by human monocytes pretreated as indicated (FIG. 27E). (FIG. 27F) LMP-bearing mice treated with mannan (12.5 mg/kg i.v. q2d×2 wk) and the indicated anibodies (10 mg/kg i.p. q2d). (FIG. 27G) Heatmap depicting correlations between expression of Dectin-2 and the indicated genes in human cancer tissues. Gene expression data were obtained from TCGA and analyzed to obtain Spearman's correlation coefficients. **, p<0.01; ****, p<0.0001 by Student's t-test (B) or two-way ANOVA with post hoc Tukey's (F) test.

[5] = test system: subcutaneous PDAC tumors; experiment: Subcutaneous PDAC tumors from kifunensine-treated mice (flow cytometry); type: in vivo; conditions: i.p., q2d for 7 days
Method: (§3) FIG. 5A-5D. Mannosidase inhibition with kifunensine induces high-mannose glycan display and increases tumor cell immunogenicity. (FIG. 5A-5C) PDAC cells were treated with kifunensine for 3 days prior to flow cytometric analysis (FIG. 5A) or coculture with TAM (FIG. 5B, FIG. 5C). (FIG. 5A) PDAC cells stained with the mannose-binding lectin, concavalin A. (FIG. 5B, FIG. 5C) Pretreated PDAC cells were labeled with CSFE and cocultured overnight with TAM to assess cytokine production (FIG. 5B) and tumor cell uptake (FIG. 5C) by Dectin-2-expressing TAM. In some experiments, TAM were treated with Dectin-2-blocking antibodies prior to coculture with PDAC cells (FIG. 5C). *, p<0.05 by Student's t-test. (FIG. 5D) Subcutaneous PDAC tumors from kifunensine-treated mice (i.p., q2d for 7 days) were analyzed by flow cytometry. CD8 T cells (CD8^+CD90^+) among total tumor-infiltrating immune cells are gated.

[6] = test system: tumor-associated myeloid cells (TAM cells); experiment: Coculture of kifunensine-pretreated PDAC cells with TAM (cytokine production, tumor cell uptake); type: cell-based; conditions: overnight coculture; Dectin-2-dependent
Method: as §3

[7] = test system: PDAC cells; experiment: High-mannose glycan display by kifunensine-treated PDAC cells (concavalin A staining, flow cytometry); type: cell-based; conditions: tumor cells treated 3 days
Method: as §3

[8] = test system: TAMs; experiment: Stimulation of TAMs by Man2-T785 conjugate in solution; type: cell-based; conditions: stimuli in solution, low / equivalent concentrations
From the text: FIG. 21. Data showing synergism when a Dectin-2 agonist (in this case 65% Man2 100-mer) is conjugated to an immunostimulatory agent (in this case TLR7/8 agonist T785), yielding a glycopeptide conjugate (Man2-T785) that strongly stimulates cells in soluble form.
Synergistic immunostimulatory effects were also observed for the conjugate in vitro. […] Also surprising, the attachment of the TLR7/8 agonist changed the behavior of the Man2 glycopeptides in vitro. Whereas Man2 glycopeptides typically require immobilization (e.g., on a plate or cell) to strongly activate TAMs, the results shown were obtained with the stimuli in solution. […] The same is true of the Man2-antibody conjugates described elsewhere in this disclosure. FIG. 22A presents a schematic of the synthesis used to generate the Man2-T785 conjugate used in FIGS. 20 and 21. Synthetic schemes similar to that depicted in FIG. 22A could also be used to prepare conjugates using R848 (FIG. 22C) and other TLR7/8 ligands.

Compound: GM-CSF: granulocyte-macrophage colony-stimulating factor
- Dectin-2 expression ([1]; 18 hr): drives Dectin-2 expression
- Dectin-2 expression ([1]; GM-CSF 50 ng/mL, 24 hr): induced Dectin-2 expression
- Dectin-2 expression ([2]; mouse monocytes, 18 hr): drives Dectin-2 expression
- Dectin-2 expression ([2]; murine monocytes, GM-CSF 50 ng/mL, 24 hr): induced Dectin-2 expression
- tumor sensitivity to Dectin-2 stimuli (tumor volume) [3]: sensitized tumors to Dectin-2 stimuli
- sensitivity to Dectin-2 stimuli (TNFα production) [4]: sensitizes TAMs to Dectin-2 stimuli

Compound: O=C1N[C@@H]2[C@@H](O)[C@@H](O)[C@H](O)[C@@H](CO)N2C1=O [kifunensine]
- T cell infiltration into tumors [5]: led to T cell infiltration into tumors
- high-mannose glycan display by tumor cells in vivo [5]: increased high-mannose glycan display by tumor cells
- TAM activation by treated tumor cells (cytokine production, tumor cell uptake) [6]: activated tumor-associated myeloid cells (TAM cells)
- high-mannose glycans on the cell surface [7]: sharp increase in high-mannose glycans on the cell surface

Compound: CCCCc1nc2c(N)nc3ccccc3c2n1CCCCN [T785, 1-(4-aminobutyl)-2-butyl-1H-imidazo[4,5-c]quinolin-4-amine]
- TAM stimulation [8]: did not
